In the supplement of paper PMC10307832:

Key:
Experiment in all cases: relative viability (nuclei count vs DMSO), 5 days (fraction); higher = more cells survive
[1] = compound: O=C(O)C(Cc1ccccc1[N+](=O)[O-])=NNc1nc(-c2ccc(Cl)c(Cl)c2)cs1 (mixture of isomers) [4EGI-1] + Cc1nc(Nc2ncc(C(=O)Nc3c(C)cccc3Cl)s2)cc(N2CCN(CCO)CC2)n1 [Dasatinib] (partner 0.075 µM)
Summary of the method: (§1)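 Relative viability equals treated-well nuclei counts divided by vehicle-well nuclei counts. Counts came from 4× images of lung cancer cell lines grown in 1536-well plates for 5 days after pin-tool dosing on the day after seeding. Dosing used one drug alone or a fixed anchor-drug dose plus five library-drug doses (not always all listed) in √10 steps, and values are medians of duplicate plates.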

[2] = compound: CN1CCN(CC1)C2=CC(=C(C=C2)NC3=NC=C4C(=N3)N(C5=CC=CC=C5C(=O)N4C)C)OC [XMD8-85] + CC1(C)CCC(c2ccc(Cl)cc2)=C(CN2CCN(c3ccc(C(=O)NS(=O)(=O)c4ccc(N[C@H](CCN5CCOCC5)CSc5ccccc5)c(S(=O)(=O)C(F)(F)F)c4)cc3)CC2)C1 [Navitoclax] (partner 0.5 µM)
Summary of the method: as §1

[3] = compound: CN1CCN(CC1)C2=CC(=C(C=C2)NC3=NC=C4C(=N3)N(C5=CC=CC=C5C(=O)N4C)C)OC [XMD8-85] + CS(=O)(=O)CCNCc1ccc(-c2ccc3ncnc(Nc4ccc(OCc5cccc(F)c5)c(Cl)c4)c3c2)o1 [Lapatinib] (partner 2 µM)
Summary of the method: as §1

[4] = compound: O=C(O)C(Cc1ccccc1[N+](=O)[O-])=NNc1nc(-c2ccc(Cl)c(Cl)c2)cs1 (mixture of isomers) [4EGI-1] + CCNC(=O)c1noc(-c2cc(C(C)C)c(O)cc2O)c1-c1ccc(CN2CCOCC2)cc1 [Luminespib] (partner 0.01 µM)
Summary of the method: as §1

| Cell Line | relative viability ([1]; first compound 0.5 µM) | relative viability ([1]; first compound 5 µM) | relative viability ([1]; first compound 15.81 µM) | relative viability ([1]; first compound 50 µM) | relative viability ([2]; first compound 0.08 µM) | relative viability ([2]; first compound 0.253 µM) | relative viability ([2]; first compound 0.8 µM) | relative viability ([2]; first compound 2.53 µM) | relative viability ([2]; first compound 8 µM) | relative viability ([3]; first compound 0.08 µM) | relative viability ([3]; first compound 0.8 µM) | relative viability ([3]; first compound 2.53 µM) | relative viability ([3]; first compound 8 µM) | relative viability ([1]; first compound 1.581 µM) | relative viability ([3]; first compound 0.253 µM) | relative viability ([4]; first compound 0.5 µM) | relative viability ([4]; first compound 1.581 µM) | relative viability ([4]; first compound 5 µM) | relative viability ([4]; first compound 50 µM) | relative viability ([4]; first compound 15.81 µM) |
| --- | --- | --- | --- | --- | --- | --- | --- | --- | --- | --- | --- | --- | --- | --- | --- | --- | --- | --- | --- | --- |
| HCC-78 | 0.41 | 0.383 | 0.34 | 0.357 | 0.891 | 0.882 | 0.6 | 0.682 | 0.58 | 0.84 | 0.751 | 0.565 | 0.223 | – | – | – | – | – | – | – |
| HCC-366 | 0.772 | 0.629 | 0.67 | 0.308 | 1.12 | 1.06 | 1.27 | 1.06 | 0.63 | 0.94 | 1.09 | 0.994 | 1.06 | 0.587 | 1.12 | – | – | – | – | – |
| HCC-827 | 0.346 | 0.345 | 0.127 | 0.261 | 1.02 | 1.01 | 0.985 | 0.909 | 1.03 | 0.185 | 0.175 | 0.195 | 0.193 | 0.246 | 0.192 | 0.672 | 0.804 | 0.661 | 0.581 | – |
| HOP-62 | 0.796 | 0.668 | 0.568 | 0.473 | 0.996 | 1.08 | 0.939 | 0.992 | 0.79 | 1.11 | 0.978 | 1.13 | 0.797 | 0.587 | 0.904 | 0.974 | – | 0.868 | 0.31 | 0.89 |
| IA-LM | – | – | – | – | 0.75 | – | 0.763 | 0.641 | 0.185 | 0.847 | 0.611 | 0.455 | 0.16 | – | 0.59 | – | – | – | – | – |
| LC-2-ad | 0.697 | 0.651 | 0.199 | 0.161 | 0.512 | 0.364 | – | 0.574 | 0.328 | 1.03 | 0.984 | 1 | 0.702 | – | 0.976 | 1.13 | – | 0.906 | 0.269 | 0.385 |
| LCLC-97TM1 | 0.733 | 0.873 | 0.878 | 0.739 | 0.299 | 0.474 | 0.442 | 0.329 | 0.796 | 0.703 | 0.859 | 1.02 | 1.15 | 0.708 | 0.931 | 0.875 | 0.675 | 0.715 | 0.0986 | 0.955 |
| LCLC-103H | 0.531 | 0.503 | 0.523 | 0.236 | – | – | – | – | – | – | – | – | – | 0.503 | – | 0.984 | 0.898 | 0.989 | 0.618 | 0.82 |
| LK-2 | 0.253 | 0.309 | 0.254 | 0.134 | 0.74 | 0.915 | 0.883 | 0.772 | 0.699 | 0.691 | 0.771 | 0.552 | 0.653 | – | 0.994 | 0.192 | – | 0.269 | 0.162 | 0.206 |
| LOU-NH91 | 0.569 | 0.505 | 0.378 | 0.458 | 0.69 | 0.764 | 0.639 | 0.7 | 0.546 | – | 0.76 | 0.761 | 0.57 | – | 0.736 | 0.351 | – | 0.398 | 0.34 | 0.328 |
| LU99A | 0.615 | 0.54 | 0.449 | 0.235 | 0.857 | 0.689 | 0.888 | 0.892 | 0.44 | 1.11 | 1.05 | 1.06 | 0.882 | 0.405 | 0.96 | 0.246 | 0.271 | 0.308 | 0.205 | 0.228 |
| NCI-H358 | 0.151 | 0.183 | 0.139 | 0.0975 | – | – | – | – | – | 0.438 | 0.455 | 0.486 | 0.405 | 0.16 | 0.52 | 0.339 | 0.353 | 0.293 | 0.153 | 0.224 |
| NCI-H441 | 0.609 | 0.536 | 0.565 | 0.229 | 0.664 | 0.565 | 1.01 | 1.11 | 0.278 | – | – | – | – | 0.547 | – | 0.375 | 0.315 | 0.294 | 0.292 | 0.306 |
| NCI-H522 | 1.02 | 0.858 | 0.893 | 0.556 | – | – | – | – | – | – | – | – | – | 0.735 | – | 1.18 | 0.612 | 1.13 | 0.711 | 1.33 |
| NCI-H650 | 0.5 | 0.463 | 0.459 | 0.297 | – | – | – | – | – | 0.867 | 1.04 | 0.876 | – | – | 0.858 | 0.825 | – | 0.878 | 0.784 | 0.646 |
| NCI-H661 | 1.2 | 0.785 | 0.517 | 0.262 | – | – | – | – | – | 0.486 | 0.404 | – | 0.473 | 0.831 | 0.485 | 0.883 | 0.76 | 0.798 | 0.505 | 0.606 |
| NCI-H1299 | – | – | – | – | 1.1 | 1.06 | 1.06 | 1 | 0.804 | 1 | 0.977 | 0.974 | 0.67 | – | 0.985 | – | – | – | – | – |
| NCI-H1563 | 0.441 | 0.441 | 0.494 | 0.424 | – | – | – | – | – | 1.04 | 1.01 | 0.822 | 0.7 | 0.435 | 0.87 | 0.447 | 0.567 | 0.542 | 0.412 | 0.5 |
| NCI-H1623 | 0.507 | 0.575 | 0.437 | 0.414 | – | – | – | – | – | – | – | – | – | 0.446 | – | 0.637 | 0.553 | 0.707 | 0.387 | 0.383 |
| NCI-H1703 | – | – | – | – | 1.02 | 1.18 | 1.23 | 1.13 | 0.983 | – | 1.25 | 1.26 | 0.841 | – | 1.22 | – | – | – | – | – |
| NCI-H2342 | 0.299 | 0.292 | 0.292 | 0.257 | – | – | – | – | – | – | – | – | – | 0.3 | – | 0.854 | 0.758 | 0.724 | 0.677 | 0.904 |
| SW 900 | 0.641 | 0.528 | 0.487 | 0.547 | – | – | – | – | – | – | – | – | – | – | – | 0.253 | – | 0.177 | 0.191 | 0.156 |
